Assay results: US7582618B2 (priority 2002, dated 2009)
In brackets after ≈: the same amount, converted by molar mass. Entries after “also recorded” stand apart in the source; their conditions may differ. Where two headings read alike, the source gives them in different places.

What was measured:
CVB-4 = experiment: microbe, parasite or virus in culture; assay type: cell-based, Coxsackievirus B-4; conditions: Coxsackievirus, read-out: EC50 CVB-4
Huh7 cells = experiment: Mitochondria toxicity assay, lactic acid production; conditions: 10 μM, 4 days
[1] = Cytotoxicity (cell proliferation) assay; conditions: human
[2] = Cytotoxicity (cell proliferation) assay; conditions: rat, H9c2 myocardial cells
YFV (Vero) = experiment: microbe, parasite or virus in culture; assay type: cell-based; conditions: Yellow fever virus
[3] = Cytotoxicity testing by NIH program; conditions: human and other mammalian
REO-1 = experiment: Antiviral test (Tables 8b, 8c); assay type: cell-based, double-stranded RNA viruses
Cytotoxicity (Table 10) = conditions: human, A549 cells
YFV = experiment: microbe, parasite or virus in culture; assay type: cell-based; conditions: Yellow fever virus, read-out: YFV (Table 8b)
DENV 2 = experiment: Antiviral test (Table 8b); assay type: cell-based; conditions: Dengue virus
CVB-2 = experiment: Antiviral test (Tables 8b, 8c); assay type: cell-based, Coxsackievirus B-2; conditions: Coxsackievirus
HepG2 cells [4] = experiment: Mitochondrial DNA content (mtDNA/nuclear DNA); assay type: cell-based, human; conditions: 10 μM
Procedure: To assess the potential of mCyd to produce mitochondrial toxicity, several in vitro studies were conducted using the human hepatoma cell lines HepG2 or Huh7.
• a. HepG2 or huh7 cells were treated with compounds for 4 days, data represent at least three independent experiments • b. HepG2 cells were treated with compounds for 6 and 14 days, data represents at least three independent experiments • c. HepG2 cells were treated with compounds for 14 days • d. 17% cell (11 of 64) contained 1 or 2 enlarged mitochondria out of 25 in two independent experiments nd, not determined

[5] = test system: BVDV (strain I-N-dIns), noncytopathic; assay type: cell-based, bovine viral diarrhea virus
Yellow Fever virus = experiment: microbe, parasite or virus in culture; assay type: cell-based; conditions: read-out: composite EC50 range, Yellow Fever virus
[6] = test system: BVDV I-N-dlns ncp in MDBK cells; experiment: microbe, parasite or virus in culture; assay type: cell-based; conditions: Bovine viral diarrhea virus isolates and strains, read-out: Antiviral Efficacy EC90
[7] = Cytotoxicity (cell proliferation) assay; conditions: hamster, BHK-21 kidney cells
[8] = Cellular DNA or RNA synthesis ([3H]-thymidine / [3H]-uridine incorporation); conditions: human, HepG2 cells
[9] = test system: different strains of BVDV; experiment: BVDV cell protection, plaque reduction and yield reduction assays, summary over strains; assay type: cell-based; conditions: Bovine viral diarrhea virus isolates and strains, all three assays
EBV (Daudi) = experiment: microbe, parasite or virus in culture; assay type: cell-based; conditions: human gammaherpesvirus 4, Daudi
HepG2 cells [10] = experiment: Transmission electron microscopy of mitochondrial ultrastructure; conditions: 10 μM, 14 days
[11] = test system: BVDV I-NADL cp in MDBK cells; experiment: Yield reduction assay; assay type: cell-based; conditions: Bovine viral diarrhea virus isolates and strains
Procedure: For each compound the concentration to obtain a 6-log reduction in viral load was determined in duplicate 24-well plates by yield reduction assays. The assay was performed as described by Baginski, S. G.; Pevear, D. C.; Seipel, M.; Sun, S. C. C.; Benetatos, C. A.; Chunduru, S. K.; Rice, C. M. and M. S. Collett “Mechanism of action of a pestivirus antiviral compound” PNAS USA 2000, 97(14), 7981-7986, with minor modifications. Briefly, MDBK cells were seeded onto 24-well plates (2×10^5 cells per well) 24 hours before infection with BVDV (NADL strain) at a multiplicity of infection (MOI) of 0.1 PFU per cell. Serial dilutions of test compounds were added to cells in a final concentration of 0.5% DMSO in growth medium. Each dilution was tested in triplicate. After three days, cell cultures (cell monolayers and supernatants) were lysed by three freeze-thaw cycles, and virus yield was quantified by plaque assay. Briefly, MDBK cells were seeded onto 6-well plates (5×10^5 cells per well) 24 h before use. Cells were inoculated with 0.2 mL of test lysates for 1 hour, washed and overlaid with 0.5% agarose in growth medium. After 3 days, cell monolayers were fixed with 3.5% formaldehyde and stained with 1% crystal violet (w/v in 50% ethanol) to visualize plaques. The plaques were counted to determine the concentration to obtain a 6-log reduction in viral load.

[12] = test system: BVDV NADL cp in MDBK cells; experiment: Yield reduction assay; assay type: cell-based, bovine viral diarrhea virus
in vitro = conditions: rhesus monkey
WNV (Vero) = experiment: microbe, parasite or virus in culture; assay type: cell-based; conditions: West Nile virus
DENV-4 in BHK cells = experiment: Cell protection assay; assay type: cell-based; conditions: Dengue virus, DENV4, DENV-4, BHK

For `CC1(O)C(O)C(CO)OC1n1ccc(N)nc1=O` (centres unmarked) [mCyd, 4-Amino-1-(3,4-dihydroxy-5-hydroxymethyl-3-methyl-tetrahydro-furan-2-yl)-1H-pyrimidine-2-one], the EC50 (CVB-4) was 13 µM, the “L-Lactate (% of Control), Huh7 Cells” value (Huh7 cells) was 98.0 ± 12.3 % of Control and the CC50 [1] was > 200 µM. For the same compound, the CC50 ([1]; HepG2 hepatoma cells on collagen-coated plates, CC50, HepG2 grown on collagen coated plates for 4 or 10 d) was ≥ 200 µM, the CC50 at 4 days ([1]; HepG2 hepatoma cells, CC50, HepG2, rapid cell division) was 161 µM and the CC50 at 4 days [2] was > 250 µM. The EC50 (YFV (Vero)) was 9 to 30 µM, the CC50 [3] was > 50 µM and the EC50 (REO-1) was 13 µM. The CC50 (Cytotoxicity (Table 10)) was > 200 µM, the EC50 (YFV) was 54 µM and the EC50 (DENV 2) was 95 µM. For the same compound, the EC50 (CVB-2; Table 8c, read-out: EC50 CVB-2) was 11 µM, the EC50 (CVB-2; read-out: CVB-2 (Table 8b)) was 12 µM and the “mtDNA/nuclear DNA (% of Control), 6 day Treatment” value (HepG2 cells [4]) was 117.3 ± 17.5 % of Control. The “mtDNA/nuclear DNA (% of Control), 14 day Treatment” value (HepG2 cells [4]) was 99.7 ± 23.9 % of Control, the “virus detection under prolonged treatment” value ([5]; 8 μM, after two passages, re-emerged by passage 6) was “no longer detectable” and the virus production ([5]; 16 μM, from more than 6 logs of virus per ml, within two cell passages) was “undetectable levels”. It also gave an EC50 (Yellow Fever virus) of 9 to 80 µM, an EC90 [6] of 1.49 µM and a CC50 at 4 days [7] of 132 µM. It also gave a CC50 ([8]; probe [3H]-thymidine, CC50 DNA ([3H]Thymidine), 50% reduction of thymidine incorporation into cellular DNA) of 112 µM, a CC50 ([8]; probe [3H]-uridine, CC50 RNA ([3H]Uridine), 50% reduction of uridine incorporation into cellular RNA) of 186 µM and an EC50 ([9]; read-out: range of EC50 values against BVDV) of 0.3 to 2.8 µM. For the same compound, the EC90 ([9]; read-out: range of EC90 values against BVDV) was 0.87 to 4.8 µM, the EC50 (EBV (Daudi)) was 25.5 µg/mL (≈ 99.1 µM) and the “Electron Microscopy, Lipid Droplet Form.” value (HepG2 cells [10]) was “Negative”. For the same compound, the “Electron Microscopy, Mito. Morphol.” value (HepG2 cells [10]) was “No changes in cell architecture, or in mitochondrial number or morphology; also recorded: Normal^d”, the “cells with 1 to 2 enlarged mitochondria out of an average of 25 per cell” value (HepG2 cells [10]) was 17% and the EC50 [11] was 0.68 µM. For the same compound, the EC90 ([11]; read-out: Antiviral Efficacy EC90) was 1.73 µM, the EC50 ([12]; Bovine viral diarrhea virus isolates and strains, yield reduction, BVDV NADL cp, MDBK) was 2.77 ± 1.16 µM and the EC90 ([12]; Bovine viral diarrhea virus isolates and strains, yield reduction, BVDV NADL cp, MDBK, read-out: Antiviral Efficacy EC90) was 4.8 ± 1.55 µM. The “suppression of de novo BVDV production” value ([12]; yield reduction assay, circa 20 μM) was “up to 6 log10”, the “Antiviral Efficacy EC4 log” value ([12]; yield reduction, BVDV NADL cp, MDBK) was 13.9 ± 3.07 μM and the CC50 (in vitro) was > 200 µM. For the same compound, the EC50 (WNV (Vero)) was 46 µM and the EC50 (DENV-4 in BHK cells) was 59 µM.
